What all share (format): cell-based
Experiment [1] has as its target EGFR(D770_N771insSVD) expressing Ba/F3 stable cell line (Homo sapiens, UniProt P00533, DUP768-770, cells depend on it). Put plainly: Cellular proliferation (Alamar Blue) assay, EGFR D770_N771insSVD Ba/F3. Particulars: EGFR D770_N771insSVD Ba/F3, 72 hr, read-out: D770 IC50. Here is the method:
(§1) Example 3: Cellular Proliferation (Alamar Blue) Assays
(§2) • 1. EGFR(D770_N771insSVD) expressing Ba/F3 stable cell line • 2. EGFR (A767_dupASV) expressing Ba/F3 stable cell line • 3. A431 cells • 4. BTER2 (A775_G776insYVMA) expressing Ba/F3 stable cell line • 5. BTER2 (WT) expressing Ba/F3 stable cell line • 6. BT-474 cells
(§3) • 1. Seed cells at 5000 for A431 and 15,000 cells for Ba/F3 in 100 μL/well in complete media (for A431: DMEM with 10% FBS and for Ba/F3 cells: RPMI with 10% FBS) in 96-well tissue culture plate. Leave outer wells without cells for background measurements. Incubate at 37 degree Celsius in 5% CO2 humidified incubator for 16-18 hours. • 2. Add 0.025 ml of 5× concentration compound dilution or DMSO control. Final compound concentration range is 10-0.0005 μM prepared in 3-fold serial dilutions. Incubate for 72 hr at 37 degree Celsius in […] humidified incubator. • 3. Add 0.0125 mL Alamar Blue™ reagent to each well with multi-channel pipette and tap gently on each side of the plate to mix. Incubate for 3 hours at 37 degree Celsius in […] humidified incubator. • 4. Read plates on fluorescence reader (Tecan Spark Control, Device: Spark, Serial #: 1801006040) at 540 nm excitation, 590 nm emission wavelength. • 5. Data analysis was performed using XLfit 5.5.0.5.

Experiment [2] concerns the target EGFR (A767_dupASV) expressing Ba/F3 stable cell line (Homo sapiens, UniProt P00533, DUP767-769, cells depend on it). Put plainly: Cellular proliferation (Alamar Blue) assay, EGFR A767_dupASV Ba/F3. The settings on record: EGFR A767_dupASV Ba/F3, 72 hr, read-out: A767 IC50. Here is the method:
as §1, §2, §3

Another experiment concerns A431 cells. Put plainly: Cellular proliferation (Alamar Blue) assay, A431. Particulars: Homo sapiens. Here is the method:
as §1, §2, §3

Setting [3] is: A-431, 72 h, read-out: A431 IC50 (nM).
Where [4] appears, read: A-431, A431 cells, 72 hr, Alamar Blue, read-out: A431 IC50.

Where two headings read alike, the source gives them in different places. Some results are limits rather than exact numbers.

Chain of EGFR (A767_dupASV) expressing Ba/F3 stable cell line (P00533 with tags, fused parts or gaps DUP767-769): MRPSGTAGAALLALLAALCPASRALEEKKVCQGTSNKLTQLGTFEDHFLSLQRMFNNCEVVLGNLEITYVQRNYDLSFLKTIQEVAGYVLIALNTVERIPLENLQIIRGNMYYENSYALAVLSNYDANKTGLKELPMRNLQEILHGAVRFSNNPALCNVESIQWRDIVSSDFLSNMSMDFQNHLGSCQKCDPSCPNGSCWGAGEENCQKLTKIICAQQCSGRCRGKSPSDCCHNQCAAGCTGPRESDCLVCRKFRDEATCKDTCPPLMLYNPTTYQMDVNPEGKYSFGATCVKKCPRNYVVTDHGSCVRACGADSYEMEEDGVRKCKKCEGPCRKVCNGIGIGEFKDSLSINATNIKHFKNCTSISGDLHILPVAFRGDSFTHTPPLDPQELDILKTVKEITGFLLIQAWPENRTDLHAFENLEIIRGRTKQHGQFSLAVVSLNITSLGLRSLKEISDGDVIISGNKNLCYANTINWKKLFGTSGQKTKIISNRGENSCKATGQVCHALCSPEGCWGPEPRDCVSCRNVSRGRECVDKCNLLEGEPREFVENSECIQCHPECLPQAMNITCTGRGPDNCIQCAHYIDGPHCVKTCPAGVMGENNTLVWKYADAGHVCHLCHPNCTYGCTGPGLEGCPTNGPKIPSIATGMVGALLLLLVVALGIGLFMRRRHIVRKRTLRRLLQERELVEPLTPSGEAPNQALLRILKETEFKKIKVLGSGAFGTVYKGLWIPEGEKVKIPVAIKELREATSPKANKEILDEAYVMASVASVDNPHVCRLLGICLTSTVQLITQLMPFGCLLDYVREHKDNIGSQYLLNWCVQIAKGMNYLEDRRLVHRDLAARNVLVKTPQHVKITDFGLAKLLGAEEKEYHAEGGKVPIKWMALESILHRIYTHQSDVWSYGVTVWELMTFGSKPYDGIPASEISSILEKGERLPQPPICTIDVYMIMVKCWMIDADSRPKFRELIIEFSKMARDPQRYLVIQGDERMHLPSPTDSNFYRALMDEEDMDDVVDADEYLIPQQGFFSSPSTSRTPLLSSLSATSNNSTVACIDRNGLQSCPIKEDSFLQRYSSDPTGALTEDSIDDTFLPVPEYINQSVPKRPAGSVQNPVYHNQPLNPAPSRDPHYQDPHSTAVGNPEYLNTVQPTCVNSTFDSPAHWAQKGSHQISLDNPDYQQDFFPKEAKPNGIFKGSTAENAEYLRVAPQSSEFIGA
Chain of EGFR(D770_N771insSVD) expressing Ba/F3 stable cell line (P00533 with tags, fused parts or gaps DUP768-770): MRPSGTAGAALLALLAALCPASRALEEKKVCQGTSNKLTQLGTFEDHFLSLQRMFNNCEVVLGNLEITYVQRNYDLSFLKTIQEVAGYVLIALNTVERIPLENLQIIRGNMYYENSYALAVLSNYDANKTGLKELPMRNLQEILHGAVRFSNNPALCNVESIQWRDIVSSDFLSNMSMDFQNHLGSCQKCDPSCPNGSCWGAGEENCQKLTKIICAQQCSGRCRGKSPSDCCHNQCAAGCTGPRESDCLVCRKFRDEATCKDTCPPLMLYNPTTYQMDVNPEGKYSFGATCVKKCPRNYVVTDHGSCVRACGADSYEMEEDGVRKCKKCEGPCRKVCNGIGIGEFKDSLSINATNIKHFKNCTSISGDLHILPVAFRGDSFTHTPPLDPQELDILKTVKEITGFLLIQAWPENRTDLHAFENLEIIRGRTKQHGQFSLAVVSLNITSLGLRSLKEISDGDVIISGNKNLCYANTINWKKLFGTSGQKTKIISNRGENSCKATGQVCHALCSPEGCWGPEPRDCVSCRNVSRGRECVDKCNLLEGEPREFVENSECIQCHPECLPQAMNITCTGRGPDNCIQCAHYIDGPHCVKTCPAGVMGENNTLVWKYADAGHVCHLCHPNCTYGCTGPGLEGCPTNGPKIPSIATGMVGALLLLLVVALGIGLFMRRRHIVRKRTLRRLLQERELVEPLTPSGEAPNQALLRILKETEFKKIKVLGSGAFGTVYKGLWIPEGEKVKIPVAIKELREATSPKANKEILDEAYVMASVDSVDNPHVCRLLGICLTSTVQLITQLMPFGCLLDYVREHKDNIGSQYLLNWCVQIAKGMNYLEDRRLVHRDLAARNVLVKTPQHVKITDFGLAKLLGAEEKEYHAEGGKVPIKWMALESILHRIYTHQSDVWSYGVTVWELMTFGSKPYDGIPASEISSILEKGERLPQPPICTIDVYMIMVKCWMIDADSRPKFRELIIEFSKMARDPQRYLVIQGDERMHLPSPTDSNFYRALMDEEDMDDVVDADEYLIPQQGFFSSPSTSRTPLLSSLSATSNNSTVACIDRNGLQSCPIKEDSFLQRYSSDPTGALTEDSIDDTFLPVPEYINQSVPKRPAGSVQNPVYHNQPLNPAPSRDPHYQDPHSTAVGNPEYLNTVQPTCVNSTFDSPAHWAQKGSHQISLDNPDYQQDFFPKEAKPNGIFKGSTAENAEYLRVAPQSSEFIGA

Turning to `C[C@H](c1ccccc1)N1Cc2cnc(Nc3cnn(C)c3)nc2N(c2cccc(NC(=O)/C=C/CN(C)C)c2)C1=O` (single isomer, unassigned) [Compound 133], the values for the GI50 in experiment [1] and in experiment [2] were 2690 nM and 1120 nM, respectively. In addition, the IC50 in the experiment with A431 cells (setting [3]) was no less than 10000 nM.
Taken in the same sequence, the figures for `C[C@@H](c1ccccc1)N1Cc2cnc(Nc3cnn(C)c3)nc2N(c2cccc(NC(=O)/C=C/CN(C)C)c2)C1=O` (single isomer, unassigned) [Compound 134] were 103 nM, 109 nM and no less than 10000 nM.
As to `CN(C)C/C=C/C(=O)Nc1cccc(N2C(=O)N(Cc3ccccc3)Cc3cnc(Nc4ccn(C)n4)nc32)c1` [Compound 52, (E)-N-(3-(3-benzyl-7-((1-methyl-1H-pyrazol-3-yl)amino)-2-oxo-3,4-dihydropyrimido[4,5-d]pyrimidin-1(2H)-yl)phenyl)-4-(dimethylamino)but-2-enamide], the figures for the GI50 in experiment [1] and in experiment [2] were 341 nM and 244 nM, respectively. The IC50 in the experiment with A431 cells (setting [4]) was no less than 10000 nM.
Regarding `CN(C)C/C=C/C(=O)Nc1cccc(N2C(=O)N(Cc3ccccc3)Cc3cnc(Nc4cnc5c(cnn5C)c4)nc32)c1` [Compound 53, (E)-N-(3-(3-benzyl-7-((1-methyl-1H-pyrazolo[3,4-b]pyridin-5-yl)amino)-2-oxo-3,4-dihydropyrimido[4,5-d]pyrimidin-1(2H)-yl)phenyl)-4-(dimethylamino)but-2-enamide], the figures for the GI50 in experiment [1] and in experiment [2] were 1050 nM and 474 nM, respectively. Also, the IC50 in the experiment on A431 cells (setting [4]) was no less than 10000 nM.
For the compound `CN(C)C/C=C/C(=O)Nc1cccc(N2C(=O)N(Cc3ccccc3)Cc3cnc(Nc4ccc(N5CCOCC5)nc4)nc32)c1` [Compound 54, (E)-N-(3-(3-benzyl-7-((6-morpholinopyridin-3-yl)amino)-2-oxo-3,4-dihydropyrimido[4,5-d]pyrimidin-1(2H)-yl)phenyl)-4-(dimethylamino)but-2-enamide], the GI50 in experiment [1] was 337 nM; in experiment [2], 224 nM. For the same compound, in the experiment with A431 cells (setting [4]), the IC50 is no less than 10000 nM.
Take `CN(C)C/C=C/C(=O)Nc1cccc(N2C(=O)N(Cc3ccccc3)Cc3cnc(Nc4cnc(N5CCOCC5)nc4)nc32)c1` [Compound 55, (E)-N-(3-(3-benzyl-7-((2-morpholinopyrimidin-5-yl)amino)-2-oxo-3,4-dihydropyrimido[4,5-d]pyrimidin-1(2H)-yl)phenyl)-4-(dimethylamino)but-2-enamide]: the results for the GI50 in experiment [1] and in experiment [2] were 3860 nM and 1670 nM, respectively. Moreover, the IC50 in the experiment on A431 cells (setting [4]) is no less than 10000 nM.
`COc1nn(C)cc1Nc1ncc2c(n1)N(c1cccc(NC(=O)/C=C/CN(C)C)c1)C(=O)N(Cc1ccccc1)C2` [Compound 56, (E)-N-(3-(3-benzyl-7-((3-methoxy-1-methyl-1H-pyrazol-4-yl)amino)-2-oxo-3,4-dihydropyrimido[4,5-d]pyrimidin-1(2H)-yl)phenyl)-4-(dimethylamino)but-2-enamide]: the GI50 in experiment [1] came to 107 nM; in experiment [2], 65 nM. The IC50 with A431 cells (setting [4]) is no less than 10000 nM.
With `CN(C)C/C=C/C(=O)Nc1cccc(N2C(=O)N(Cc3ccc(F)cc3)Cc3cnc(Nc4cn(C)nc4Cl)nc32)c1` [Compound 57, (E)-N-(3-(7-((3-chloro-1-methyl-1H-pyrazol-4-yl)amino)-3-(4-fluorobenzyl)-2-oxo-3,4-dihydropyrimido[4,5-d]pyrimidin-1(2H)-yl)phenyl)-4-(dimethylamino)but-2-enamide], the GI50 in experiment [1] came to 476 nM; in experiment [2], 115 nM. The IC50 with A431 cells (setting [4]) was no less than 10000 nM.
As for `CN(C)C/C=C/C(=O)Nc1cccc(N2C(=O)N(Cc3ccccc3)Cc3cnc(Nc4cnoc4)nc32)c1` [Compound 58, (E)-N-(3-(3-benzyl-7-(isoxazol-4-ylamino)-2-oxo-3,4-dihydropyrimido[4,5-d]pyrimidin-1(2H)-yl)phenyl)-4-(dimethylamino)but-2-enamide], the GI50 in experiment [1] is 2110 nM; in experiment [2], 801 nM. The IC50 in the experiment on A431 cells (setting [4]) was no less than 10000 nM.
The matching figures for `CN(C)C/C=C/C(=O)Nc1cccc(N2C(=O)N(Cc3ccccc3)Cc3cnc(Nc4cnc(N5CCN(C)CC5)nc4)nc32)c1` [Compound 59, (E)-N-(3-(3-benzyl-7-((2-(4-methylpiperazin-1-yl)pyrimidin-5-yl)amino)-2-oxo-3,4-dihydropyrimido[4,5-d]pyrimidin-1(2H)-yl)phenyl)-4-(dimethylamino)but-2-enamide]: no less than 10000 nM, 8660 nM and no less than 10000 nM.
Taken in the same sequence, the figures for `Cc1nocc1Nc1ncc2c(n1)N(c1cccc(NC(=O)/C=C/CN(C)C)c1)C(=O)N(Cc1ccccc1)C2` [Compound 60, (E)-N-(3-(3-benzyl-7-((3-methylisoxazol-4-yl)amino)-2-oxo-3,4-dihydropyrimido[4,5-d]pyrimidin-1(2H)-yl)phenyl)-4-(dimethylamino)but-2-enamide] were 2390 nM, 1700 nM and no less than 10000 nM.
The matching figures for `CN(C)C/C=C/C(=O)Nc1cccc(N2C(=O)N(Cc3ccc(F)cc3F)Cc3cnc(Nc4cn(C)nc4Cl)nc32)c1` [Compound 61, (E)-N-(3-(7-((3-chloro-1-methyl-1H-pyrazol-4-yl)amino)-3-(2,4-difluorobenzyl)-2-oxo-3,4-dihydropyrimido[4,5-d]pyrimidin-1(2H)-yl)phenyl)-4-(dimethylamino)but-2-enamide]: 105 nM, 58 nM and no less than 10000 nM.
For `COc1cc(CN2Cc3cnc(Nc4cn(C)nc4Cl)nc3N(c3cccc(NC(=O)/C=C/CN(C)C)c3)C2=O)ccn1` [Compound 62, (E)-N-(3-(7-((3-chloro-1-methyl-1H-pyrazol-4-yl)amino)-3-((2-methoxypyridin-4-yl)methyl)-2-oxo-3,4-dihydropyrimido[4,5-d]pyrimidin-1(2H)-yl)phenyl)-4-(dimethylamino)but-2-enamide], the figures for the GI50 in experiment [1] and in experiment [2] were 5480 nM and 2260 nM, respectively. For the same compound, the IC50 with A431 cells (setting [4]) was no less than 10000 nM.
Taken in the same sequence, the figures for `CN(C)C/C=C/C(=O)N(C)c1cccc(N2C(=O)N(Cc3ccccc3)Cc3cnc(Nc4cn(C)nc4Cl)nc32)c1` [Compound 63, (E)-N-(3-(3-benzyl-7-((3-chloro-1-methyl-1H-pyrazol-4-yl)amino)-2-oxo-3,4-dihydropyrimido[4,5-d]pyrimidin-1(2H)-yl)phenyl)-4-(dimethylamino)-N-methylbut-2-enamide] were 1460 nM, 532 nM and no less than 10000 nM.
The matching figures for `CN(C)C/C=C/C(=O)Nc1cccc(N2C(=O)N(Cc3ccccc3)Cc3cnc(Nc4cn(C)nc4Cl)cc32)c1` [Compound 64, (E)-N-(3-(3-benzyl-7-((3-chloro-1-methyl-1H-pyrazol-4-yl)amino)-2-oxo-3,4-dihydropyrido[4,3-d]pyrimidin-1(2H)-yl)phenyl)-4-(dimethylamino)but-2-enamide]: 1030 nM, 809 nM and no less than 10000 nM.
For `COC/C=C/C(=O)Nc1cccc(N2C(=O)N(Cc3ccccc3)Cc3cnc(Nc4cn(C)nc4Cl)nc32)c1` [Compound 76, (E)-N-(3-(3-benzyl-7-((3-chloro-1-methyl-1H-pyrazol-4-yl)amino)-2-oxo-3,4-dihydropyrimido[4,5-d]pyrimidin-1(2H)-yl)phenyl)-4-methoxybut-2-enamide], the GI50 was found to be 342 nM in experiment [1] and 336 nM in experiment [2]. Further, the IC50 with A431 cells (setting [4]) was no less than 10000 nM.
Taken in the same sequence, the figures for `C=CC(=O)Nc1cc(N2C(=O)N(Cc3ccccc3)Cc3cnc(Nc4cn(C)nc4Cl)nc32)ccc1OC` [Compound 77, N-(5-(3-benzyl-7-((3-chloro-1-methyl-1H-pyrazol-4-yl)amino)-2-oxo-3,4-dihydropyrimido[4,5-d]pyrimidin-1(2H)-yl)-2-methoxyphenyl)acrylamide] were 9130 nM, no less than 10000 nM and no less than 10000 nM.
The matching figures for `C=CC(=O)Nc1cc(N2C(=O)N(Cc3ccccc3)Cc3cnc(Nc4cn(C)nc4Cl)nc32)ccc1OC(F)(F)F` [Compound 78, N-(5-(3-benzyl-7-((3-chloro-1-methyl-1H-pyrazol-4-yl)amino)-2-oxo-3,4-dihydropyrimido[4,5-d]pyrimidin-1(2H)-yl)-2-(trifluoromethoxy)phenyl)acrylamide]: 8780 nM, 8370 nM and 4180 nM.
The matching figures for `CN(C)C/C=C/C(=O)Nc1ccc(Cl)c(N2C(=O)N(Cc3ccccc3)Cc3cnc(Nc4cn(C)nc4Cl)nc32)c1` [Compound 86, (E)-N-(3-(3-benzyl-7-((3-chloro-1-methyl-1H-pyrazol-4-yl)amino)-2-oxo-3,4-dihydropyrimido[4,5-d]pyrimidin-1(2H)-yl)-4-chlorophenyl)-4-(dimethylamino)but-2-enamide]: 900 nM, 694 nM and 5440 nM.

Values taken from patent US20230027026A1, “FUSED PYRIMIDINE COMPOUNDS, COMPOSITIONS AND MEDICINAL APPLICATIONS THEREOF” (JUBILANT BIOSYS LIMITED, priority 2019, published 2023).
